{
  "source": "patent US20160158200A1",
  "about": "“Combinations of Hepatitis C Virus Inhibitors” (priority 2013, published 2016)",
  "data": [
    {"tested_on": "HCV genotype-1a variant with glutamine 30 changed to glutamate in the NS5A protein", "type": "cell-based", "details": "test compound titrated with BMS-790052 fixed at 200 nM; genotype 1a Q30E replicon", "method_in_brief": "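Synergy was assessed by combining several fixed amounts of an NS5A-targeting compound with a titration of the second compound of interest.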", "units": {"Fold-Synergistic 1a (Q30E)": "fold"}, "values": [
      {"smiles": "CC(C)[C@H](NC(=O)C1(CO)CC(F)(F)C1)c1nc(-c2ccc(-c3ccc(-c4c[nH]c([C@@H](NC(=O)C5(CO)CC(F)(F)C5)C(C)C)n4)cc3)cc2)c[nH]1", "note": "[Compound N-154]", "Fold-Synergistic 1a (Q30E)": ">100"},
      {"smiles": "CC1([C@H](NC(=O)C2(CO)CC(F)(F)C2)c2nc(-c3ccc(-c4ccc(-c5c[nH]c([C@@H](NC(=O)C6(CO)CC(F)(F)C6)C6(C)CC6)n5)cc4)cc3)c[nH]2)CC1", "note": "[Compound N-155]", "Fold-Synergistic 1a (Q30E)": ">100"},
      {"smiles": "CCC(C)(C)C(=O)N[C@H](c1nc(-c2ccc(-c3ccc(-c4c[nH]c([C@@H](NC(=O)C(C)(C)CC)C(C)(C)C)n4)cc3)cc2)c[nH]1)C(C)(C)C", "note": "[Compound P-11]", "Fold-Synergistic 1a (Q30E)": ">100"},
      {"smiles": "COCC(C)(C)C(=O)N[C@H](c1nc(-c2ccc(-c3ccc(-c4c[nH]c([C@@H](NC(=O)C(C)(C)COC)C(C)(C)C)n4)cc3)cc2)c[nH]1)C(C)(C)C", "note": "[Compound P-12]", "Fold-Synergistic 1a (Q30E)": ">100"},
      {"smiles": "COC(C)(C)C(=O)N[C@H](c1nc(-c2ccc(-c3ccc(-c4c[nH]c([C@@H](NC(=O)C(C)(C)OC)C(C)(C)C)n4)cc3)cc2)c[nH]1)C(C)(C)C", "note": "[Compound P-13]", "Fold-Synergistic 1a (Q30E)": ">100"},
      {"smiles": "CC(C)(C)[C@H](NC(=O)C1(CF)CC1)c1nc(-c2ccc(-c3ccc(-c4c[nH]c([C@@H](NC(=O)C5(CF)CC5)C(C)(C)C)n4)cc3)cc2)c[nH]1", "note": "[Compound P-14]", "Fold-Synergistic 1a (Q30E)": ">100"},
      {"smiles": "CO[C@@H](C(=O)N[C@H](c1nc(-c2ccc(-c3ccc(-c4c[nH]c([C@@H](NC(=O)[C@H](OC)c5ccccc5)C(C)(C)C)n4)cc3)cc2)c[nH]1)C(C)(C)C)c1ccccc1", "note": "[Compound P-15]", "Fold-Synergistic 1a (Q30E)": ">100"},
      {"smiles": "CC(C)(C)[C@H](NC(=O)Cc1noc2ccccc12)c1nc(-c2ccc(-c3ccc(-c4c[nH]c([C@@H](NC(=O)Cc5noc6ccccc56)C(C)(C)C)n4)cc3)cc2)c[nH]1", "note": "[Compound P-16]", "Fold-Synergistic 1a (Q30E)": ">100"},
      {"smiles": "CC(C)(C)[C@H](NC(=O)C1CC(F)(F)C1)c1nc(-c2ccc(-c3ccc(-c4c[nH]c([C@@H](NC(=O)C5CC(F)(F)C5)C(C)(C)C)n4)cc3)cc2)c[nH]1", "note": "[Compound P-17]", "Fold-Synergistic 1a (Q30E)": ">100"},
      {"smiles": "CO[C@H](C(=O)N[C@H](c1nc(-c2ccc(-c3ccc(-c4c[nH]c([C@@H](NC(=O)[C@@H](OC)c5ccccc5)C(C)(C)C)n4)cc3)cc2)c[nH]1)C(C)(C)C)c1ccccc1", "note": "[Compound P-18]", "Fold-Synergistic 1a (Q30E)": ">100"},
      {"smiles": "CC(C)(CF)C(=O)N[C@H](c1nc(-c2ccc(-c3ccc(-c4c[nH]c([C@@H](NC(=O)C(C)(C)CF)C(C)(C)C)n4)cc3)cc2)c[nH]1)C(C)(C)C", "note": "[Compound P-19]", "Fold-Synergistic 1a (Q30E)": ">100"},
      {"smiles": "CC1(C(=O)N[C@H](c2nc(-c3ccc(-c4ccc(-c5c[nH]c([C@@H](NC(=O)C6(C)CCC(F)(F)CC6)C(C)(C)C)n5)cc4)cc3)c[nH]2)C(C)(C)C)CCC(F)(F)CC1", "note": "[Compound P-20]", "Fold-Synergistic 1a (Q30E)": ">100"},
      {"smiles": "COC1(C(=O)N[C@H](c2nc(-c3ccc(-c4ccc(-c5c[nH]c([C@@H](NC(=O)C6(OC)CCC6)C(C)(C)C)n5)cc4)cc3)c[nH]2)C(C)(C)C)CCC1", "note": "[Compound P-21]", "Fold-Synergistic 1a (Q30E)": ">100"},
      {"smiles": "CC(C)(C)[C@H](NC(=O)c1ncccc1F)c1nc(-c2ccc(-c3ccc(-c4c[nH]c([C@@H](NC(=O)c5ncccc5F)C(C)(C)C)n4)cc3)cc2)c[nH]1", "note": "[Compound P-22]", "Fold-Synergistic 1a (Q30E)": ">100"},
      {"smiles": "CC(C)(C)[C@H](NC(=O)c1ccccc1F)c1nc(-c2ccc(-c3ccc(-c4c[nH]c([C@@H](NC(=O)c5ccccc5F)C(C)(C)C)n4)cc3)cc2)c[nH]1", "note": "[Compound P-23]", "Fold-Synergistic 1a (Q30E)": ">100"},
      {"smiles": "CC(C)(C)[C@H](NC(=O)c1ccncc1F)c1nc(-c2ccc(-c3ccc(-c4c[nH]c([C@@H](NC(=O)c5ccncc5F)C(C)(C)C)n4)cc3)cc2)c[nH]1", "note": "[Compound P-24]", "Fold-Synergistic 1a (Q30E)": ">100"},
      {"smiles": "CC(C)(C)[C@H](NC(=O)c1ccccc1OC(F)F)c1nc(-c2ccc(-c3ccc(-c4c[nH]c([C@@H](NC(=O)c5ccccc5OC(F)F)C(C)(C)C)n4)cc3)cc2)c[nH]1", "note": "[Compound P-25]", "Fold-Synergistic 1a (Q30E)": ">100"},
      {"smiles": "CCOC(C)(C)C(=O)N[C@H](c1nc(-c2ccc(-c3ccc(-c4c[nH]c([C@@H](NC(=O)C(C)(C)OCC)C(C)(C)C)n4)cc3)cc2)c[nH]1)C(C)(C)C", "note": "[Compound P-26]", "Fold-Synergistic 1a (Q30E)": ">100"},
      {"smiles": "COC1(C(=O)N[C@H](c2nc(-c3ccc(-c4ccc(-c5c[nH]c([C@@H](NC(=O)C6(OC)CC6)C(C)(C)C)n5)cc4)cc3)c[nH]2)C(C)(C)C)CC1", "note": "[Compound P-27]", "Fold-Synergistic 1a (Q30E)": ">100"},
      {"smiles": "COc1ccccc1C(=O)N[C@H](c1nc(-c2ccc(-c3ccc(-c4c[nH]c([C@@H](NC(=O)c5ccccc5OC)C(C)(C)C)n4)cc3)cc2)c[nH]1)C(C)(C)C", "note": "[Compound P-28]", "Fold-Synergistic 1a (Q30E)": ">100"},
      {"smiles": "CCOc1ccccc1C(=O)N[C@H](c1nc(-c2ccc(-c3ccc(-c4c[nH]c([C@@H](NC(=O)c5ccccc5OCC)C(C)(C)C)n4)cc3)cc2)c[nH]1)C(C)(C)C", "note": "[Compound P-29]", "Fold-Synergistic 1a (Q30E)": ">100"},
      {"smiles": "CC(C)(C)[C@H](NC(=O)C1(C(F)(F)F)CC1)c1nc(-c2ccc(-c3ccc(-c4c[nH]c([C@@H](NC(=O)C5(C(F)(F)F)CC5)C(C)(C)C)n4)cc3)cc2)c[nH]1", "note": "[Compound P-30]", "Fold-Synergistic 1a (Q30E)": ">100"},
      {"smiles": "CC(C)(C)[C@H](NC(=O)C(C)(C)C(F)(F)F)c1nc(-c2ccc(-c3ccc(-c4c[nH]c([C@@H](NC(=O)C(C)(C)C(F)(F)F)C(C)(C)C)n4)cc3)cc2)c[nH]1", "note": "[Compound P-31]", "Fold-Synergistic 1a (Q30E)": ">100"},
      {"smiles": "CC(C)(C(=O)N[C@H](c1nc(-c2ccc(-c3ccc(-c4c[nH]c([C@@H](NC(=O)C(C)(C)C(F)F)C(C)(C)C)n4)cc3)cc2)c[nH]1)C(C)(C)C)C(F)F", "note": "[Compound P-32]", "Fold-Synergistic 1a (Q30E)": ">100"},
      {"smiles": "CC(C)(C)[C@H](NC(=O)C1(O)CCC(F)(F)CC1)c1nc(-c2ccc(-c3ccc(-c4c[nH]c([C@@H](NC(=O)C5(O)CCC(F)(F)CC5)C(C)(C)C)n4)cc3)cc2)c[nH]1", "note": "[Compound P-33]", "Fold-Synergistic 1a (Q30E)": ">100"},
      {"smiles": "COC1(C(=O)N[C@H](c2nc(-c3ccc(-c4ccc(-c5c[nH]c([C@@H](NC(=O)C6(OC)CCC(F)(F)CC6)C(C)(C)C)n5)cc4)cc3)c[nH]2)C(C)(C)C)CCC(F)(F)CC1", "note": "[Compound P-34]", "Fold-Synergistic 1a (Q30E)": ">100"},
      {"smiles": "CN1CC(F)(F)C[C@H]1C(=O)N[C@H](c1nc(-c2ccc(-c3ccc(-c4c[nH]c([C@@H](NC(=O)[C@@H]5CC(F)(F)CN5C)C(C)(C)C)n4)cc3)cc2)c[nH]1)C(C)(C)C", "note": "[Compound P-35]", "Fold-Synergistic 1a (Q30E)": ">100"},
      {"smiles": "CN1CCC[C@H]1C(=O)N[C@H](c1nc(-c2ccc(-c3ccc(-c4c[nH]c([C@@H](NC(=O)[C@@H]5CCCN5C)C(C)(C)C)n4)cc3)cc2)c[nH]1)C(C)(C)C", "note": "[Compound P-36]", "Fold-Synergistic 1a (Q30E)": ">10"},
      {"smiles": "CC(C)(C)[C@H](NC(=O)C1(CO)CCC(F)(F)CC1)c1nc(-c2ccc(-c3ccc(-c4c[nH]c([C@@H](NC(=O)C5(CO)CCC(F)(F)CC5)C(C)(C)C)n4)cc3)cc2)c[nH]1", "note": "[Compound P-37]", "Fold-Synergistic 1a (Q30E)": ">100"},
      {"smiles": "CC(C)(C)[C@H](NC(=O)C1(CF)CCC(F)(F)CC1)c1nc(-c2ccc(-c3ccc(-c4c[nH]c([C@@H](NC(=O)C5(CF)CCC(F)(F)CC5)C(C)(C)C)n4)cc3)cc2)c[nH]1", "note": "[Compound P-38]", "Fold-Synergistic 1a (Q30E)": ">100"},
      {"smiles": "CC(C)(C)[C@H](NC(=O)C1(F)CCC(F)(F)CC1)c1nc(-c2ccc(-c3ccc(-c4c[nH]c([C@@H](NC(=O)C5(F)CCC(F)(F)CC5)C(C)(C)C)n4)cc3)cc2)c[nH]1", "note": "[Compound P-39]", "Fold-Synergistic 1a (Q30E)": ">100"},
      {"smiles": "CC(C)(C)[C@H](NC(=O)C12CCC(F)(CC1)CC2)c1nc(-c2ccc(-c3ccc(-c4c[nH]c([C@@H](NC(=O)C56CCC(F)(CC5)CC6)C(C)(C)C)n4)cc3)cc2)c[nH]1", "note": "[Compound P-40]", "Fold-Synergistic 1a (Q30E)": ">100"},
      {"smiles": "COCC1(C(=O)N[C@H](c2nc(-c3ccc(-c4ccc(-c5c[nH]c([C@@H](NC(=O)C6(COC)CCC(F)(F)CC6)C(C)(C)C)n5)cc4)cc3)c[nH]2)C(C)(C)C)CCC(F)(F)CC1", "note": "[Compound P-41]", "Fold-Synergistic 1a (Q30E)": ">100"},
      {"smiles": "CC(C)(C)[C@H](NC(=O)[C@H]1C[C@@H]2CC(F)(F)C[C@@H]2C1)c1nc(-c2ccc(-c3ccc(-c4c[nH]c([C@@H](NC(=O)[C@H]5C[C@@H]6CC(F)(F)C[C@@H]6C5)C(C)(C)C)n4)cc3)cc2)c[nH]1", "note": "[Compound P-42]", "Fold-Synergistic 1a (Q30E)": ">100"},
      {"smiles": "CC(C)(C)[C@H](NC(=O)[C@@H]1C[C@@H]2CC(F)(F)C[C@@H]2C1)c1nc(-c2ccc(-c3ccc(-c4c[nH]c([C@@H](NC(=O)[C@@H]5C[C@@H]6CC(F)(F)C[C@@H]6C5)C(C)(C)C)n4)cc3)cc2)c[nH]1", "note": "[Compound P-43]", "Fold-Synergistic 1a (Q30E)": ">100"},
      {"smiles": "CC(C)(C)[C@H](NC(=O)C1CC2CCC(C1)C2(F)F)c1nc(-c2ccc(-c3ccc(-c4c[nH]c([C@@H](NC(=O)C5CC6CCC(C5)C6(F)F)C(C)(C)C)n4)cc3)cc2)c[nH]1", "note": "(some centres unmarked) [Compound P-44]", "Fold-Synergistic 1a (Q30E)": ">100"},
      {"smiles": "CC(C)(C)[C@H](NC(=O)C1CC2CCC(C1)C2(F)F)c1nc(-c2ccc(-c3ccc(-c4c[nH]c([C@@H](NC(=O)C5CC6CCC(C5)C6(F)F)C(C)(C)C)n4)cc3)cc2)c[nH]1", "note": "(some centres unmarked) [Compound P-45]", "Fold-Synergistic 1a (Q30E)": ">100"},
      {"smiles": "CC(C)(C)[C@H](NC(=O)C1CC2(C1)CC(F)(F)C2)c1nc(-c2ccc(-c3ccc(-c4c[nH]c([C@@H](NC(=O)C5CC6(C5)CC(F)(F)C6)C(C)(C)C)n4)cc3)cc2)c[nH]1", "note": "[Compound P-46]", "Fold-Synergistic 1a (Q30E)": ">100"},
      {"smiles": "CC1(C(=O)N[C@H](c2nc(-c3ccc(-c4ccc(-c5c[nH]c([C@@H](NC(=O)C6(C)CCCCC6)C(C)(C)C)n5)cc4)cc3)c[nH]2)C(C)(C)C)CCCCC1", "note": "[Compound P-47]", "Fold-Synergistic 1a (Q30E)": ">100"},
      {"smiles": "CC(C)CC(=O)N[C@H](c1nc(-c2ccc(-c3ccc(-c4nc([C@@H](NC(=O)CC(C)C)C(C)C)[nH]c4Cl)cc3)cc2)c(Cl)[nH]1)C(C)C", "note": "[Compound P-48]", "Fold-Synergistic 1a (Q30E)": ">100"},
      {"smiles": "COc1cccc2c(C(=O)N3[C@@H]4C[C@@H]4C[C@H]3c3ncc(-c4ccc(-c5ccc(-c6cnc([C@@H]7C[C@H]8C[C@H]8N7C(=O)c7nc(Cl)cc8c(OC)cccc78)[nH]6)cc5)cc4)[nH]3)nc(Cl)cc12", "note": "[Compound P-49]", "Fold-Synergistic 1a (Q30E)": ">100"}
    ]}
  ]
}
